Laboratory results taken from PMC9416111, “Synthesis and Biological Activity of Unsymmetrical Monoterpenylhetaryl Disulfides” (Molecules, 2022).

Test system: influenza virus A/Puerto Rico/8/34 (H1N1)
Experiment: Antiviral cell protection assay in MDCK cells
Type: cell-based

## CC1(C)[C@H]2CC[C@@H](CSSc3ncccc3C(=O)O)[C@@H]1C2 [Compound 2d, 2-((((1S,2R,5S)-6,6-dimethylbicyclo[3.1.1]heptan-2-yl)methyl)disulfanyl)nicotinic acid]
  virus-inhibiting activity, in words: higher than that of Rimantadine
